Here are results for one compound from patent US20240415852A1, “ORAL CODELIVERY OF NAVITOCLAX AND Bcl2 siRNA TREATING GASTIC CANCER” (Board of Regents, The University of Texas System, priority 2023, published 2024).

One data set relates to platelet. As to conditions: reported in literature; cited from earlier work.
In data set [1] the test system is adenocarcinoma gastric cell line (AGS). Description: Cytotoxicity / cell viability, MTT assay. The class given is cell-based. As to conditions: human, 24 h. The procedure: The cytotoxicity of the nanoparticle formulation was studied using adenocarcinoma gastric cell line (AGS). Cells were grown in F-12K media supplemented with 20% fetal bovine serum at 5% CO2 humidified atmosphere. Cells were harvested using trypsin and 1×10^4 cells with 100 μL of serum free media per well was plated in 96-well plate and incubated for 24 and 48 h. At end of time interval, media was removed and known concentrations of samples 1×PBS, Navi, GADA/Navi, GADA/Navi/Bcl2 siRNA, GADA/Bcl2 siRNA, Navi/Bcl2 siRNA, (Navi 10, 20, 30, 40, and 50 μM and Bcl2 siRNA 20, 40, 60, 80, and 100 nM) and GADA were added to the cells. The plate was then incubated for 24 h and 48 h. Cell viability was measured using MTT cell proliferation assay kit according to manufacturer's instruction. The absorbance of MTT was measured by using a SYNERGY H1 microplate reader (BioTek) at a wavelength of 570 nm and subtracted the background absorbance recorded at 630 nm.
The mitochondrial enzymes are responsible for reducing the tetrazolium salt (MTT) into purple formazan crystals which is indicator of cell viability/cytotoxicity. The therapeutic effect of formulations was carried out by quantifying the cell viability using MTT assay. […]
A general note: Tetrazolium assays rely on reduction of a dye to a coloured formazan, in cell work by metabolically active cells.

The structures appear in SMILES notation.

For `CC1(C)CCC(c2ccc(Cl)cc2)=C(CN2CCN(c3ccc(C(=O)NS(=O)(=O)c4ccc(N[C@H](CCN5CCOCC5)CSc5ccccc5)c(S(=O)(=O)C(F)(F)F)c4)cc3)CC2)C1` [Navitoclax], in the data set with platelet, the “Platelet apoptosis, thrombocytopenia” value is “induced platelet apoptosis, resulting in severe thrombocytopenia”. In addition, in data set [1], the Cell viability is given as 65.2±5.32%.
